Source: patent US6121264A, “Imidazole-substituted quinoxalinedione derivatives” (Yamanouchi Pharmaceutical Co., Ltd., priority 1996, dated 2000)
Like-named read-outs stand apart in the source and are kept apart here. Values belong to the molecule of their own block, whether it stands above or below them.

How the values were obtained:
[1] = tested on: NMDA receptors; conditions: in vivo; cited from earlier work
[2] = tested on: DBA/2 mice; assay: Audiogenic seizure inhibition action in DBA/2 mice; type: in vivo; conditions: Mus musculus, ip, 0.25 h; DBA/2 male mice, intraperitoneal injection 15 minutes before sound stimulus (12 kHz, 120 dB); read-out: minimum effective dose (MED), inhibition of audiogenic seizure
Procedure: 3) Measurement of audiogenic seizure inhibition action in DBA/2 mice
In a sound proof box, a total of 10 male mice of 21 to 28 days of age were exposed to auditory and stimulation by the sound of 12 kHz and 120 dB was applied for 1 minute or until the mice fell into a fit of convulsions. A compound to be tested (the compound of Example 3 which will be described later) was suspended in 0.5% methyl cellulose solution or dissolved in physiological saline and administered by intraperitoneal injection 15 minutes before the sound stimulus. The drug efficacy was evaluated by the presence or absence of spasm, and the minimum effective dose (MED) was calculated.

[3] = biological target: AMPA receptor; assay: [3H]-AMPA binding inhibition activity; conditions: about 45 nM [3H]-AMPA, rat cerebral membrane, 45 minutes on ice water
Procedure: 1) Measurement of [^3 H]-AMPA binding inhibition activity:
A 0.5 ml portion in total volume of a reaction solution containing about 45 nM of [^3 H]-AMPA [2-amino-3-(3-hydroxy-5-methyl-4-isoxazole)propionicacid], about […] of rat cerebral membrane samples and each of the test compounds was allowed to undergo 45 minutes of the reaction on ice water. The amount of [^3 H]-AMPA bonded to the AMPA receptor was measured by a filtration method. The portion substituted by 10 μM of quisqualic acid among the total amount of binding was defined as the amount of specific binding. Evaluation of the test compounds was carried out by calculating the ratio of binding inhibition exerted on the specific binding.
As the test compounds, the compound of Example 3, which will be described later, was used as the compound of the present invention, and a compound described as Example 1 in the aforementioned reference 1, represented by the following formula (to be referred to as comparative compound 1 hereinafter), was used as a comparative compound. […]

[4] = tested on: rat fetal hippocampus neurons; assay: Kainic acid neurotoxicity inhibition (LDH release) in primary culture of rat fetal hippocampus neurons; type: cell-based; conditions: Neuron, 300 μM kainic acid, 24 hours, read-out: Anti-kainic acid neurotoxicity (IC50)
Excerpt: 2) Measurement of kainic acid neurotoxicity inhibition activity:
The action of the compound of the present invention to inhibit kainic acid neurotoxicity was examined using a primary culture system of rat fetal hippocampus neurons.
Hippocampus was excised from the brain of a rat of 18 to 20 days of age and treated with enzymes papain and DNase I to disperse the cells. The cells were suspended in MEM containing 10% serum and inoculated in 4×10^5 cells/cm^2 portions into wells of a 48 well plate which has been treated in advance with poly-I-lysine, and the medium was exchanged with serum-free medium 24 hours thereafter. The medium exchange was carried out twice a week. The cells cultured for 6 days or more were used in the following test.
(2) Kainic acid neurotoxicity inhibition
The neurotoxicity was expressed as the activity of lactate dehydrogenase released in the culture medium caused by cell death. Cells exposed for 24 hours to serum-free medium containing 300 μM of kainic acid were used as the control, and the action of each of the same test compounds used in the above item 1) to inhibit neuronal death caused by kainic acid was evaluated by allowing each compound to act upon the neurons for 24 hours simultaneously with 300 μM of kainic acid.

[5] = tested on: glycine receptor; conditions: in vivo; cited from earlier work
[6] = biological target: AMPA receptor; conditions: Data reported at the American Society of Neuroscience (1996); read-out: AMPA binding inhibition activity (IC50); cited from earlier work
[7] = tested on: neuronal culture system; conditions: compound alone; cited from earlier work
[8] = tested on: AMPA receptor; conditions: in vivo; cited from earlier work

SMILES: NC(CCCCCP(=O)(O)O)C(=O)O (stereo not drawn) [2-amino-7-phosphonoheptanoic acid]
- effect in nervous disorders induced by NMDA and in animal models of epilepsy and cerebral ischemia (in words) [1]: effective

- IC50 [3]: 39 nM
SMILES: O=c1[nH]c2cc([N+](=O)[O-])c(-n3ccnc3)cc2n(CCCCOS(=O)(=O)O)c1=O [Example 3, 4-[2,3-dioxo-7-(1H-imidazol-1-yl)-6-nitro-1,2,3,4-tetrahydroquinoxalin-1-yl]butanesulfate]
- minimal effective dose [2]: 3 mg/kg
- IC50 [4]: 160 nM

SMILES: NC(CCCP(=O)(O)O)C(=O)O (stereo not drawn) [2-amino-5-phosphonovalerianic acid]
- effect in nervous disorders induced by NMDA and in animal models of epilepsy and cerebral ischemia (in words) [1]: effective

- IC50 [3]: 140 nM
SMILES: O=C(O)Cn1c(=O)c(=O)[nH]c2cc([N+](=O)[O-])c(-n3ccnc3)cc21 [Comparative compound 1]
- IC50 [4]: 800 nM

SMILES: NC1CCN(O)C1=O (stereo not drawn) [HA-966]
- effect in experimental animal model suffering from cerebral ischemia (in words) [5]: useful

SMILES: O=c1[nH]c2cc(C(F)(F)F)c(N3CCOCC3)cc2n(CP(=O)(O)O)c1=O [Comparative compound 2]
- IC50 [6]: 150 nM

SMILES: C=C(C)[C@H]1CN[C@H](C(=O)O)[C@H]1CC(=O)O [kainic acid]
- action in neurotoxicity test (in words) [7]: induces by itself significant neuronal death

SMILES: Cc1onc(O)c1CC(N)C(=O)O (stereo not drawn) [AMPA, 2-amino-3-(3-hydroxy-5-methyl-4-isoxazolyl)propionic acid]
- action in neurotoxicity test (in words) [7]: weak action

SMILES: NS(=O)(=O)c1cccc2c1c([N+](=O)[O-])cc1[nH]c(=O)c(=O)[nH]c12 [NBQX]
- effect in experimental animal model suffering from cerebral ischemia (in words) [8]: useful
